The target in assay [1] is T1, Substance-P receptor (Homo sapiens, UniProt P25103). Description: Binding affinity against human Tachykinin receptor 1 expressed in astrocytoma UC11MG cells using [125I]- SP radioligand. It is filed as cell-based.
The target in assay [2] is T1, Substance-P receptor. Particulars: UC11MG.
The subject of assay [3] is Endothelial cell. The experiment in a line: Concentration required to produce cyclic GMP levels in postcapillary endothelial cells isolated from bovine heart (CVEC). Particulars: Bos taurus. It is filed as functional, cell-based.
Assay [4] has as its system Endothelial cell. Description: Concentration required to produce maximum effect on postcapillary endothelial cells isolated from bovine heart (CVEC) proliferation. Particulars: Bos taurus. The assay is classed as functional, cell-based.
The subject of assay [5] is Endothelial cell. The experiment in a line: Concentration required to produce maximum stimulation in tritiated inositol monophosphate (IP1) level in postcapillary endothelial cells isolated from bovine heart (CVEC). The assay is classed as functional, cell-based. The following applies: Bos taurus.
In assay [6] the target is T1, Substance-P receptor. The experiment in a line: Inhibition of labeled SP total binding against human Tachykinin receptor 1 expressed in astrocytoma UC11MG cells by the second binding component. The assay is classed as cell-based.

T1 sequence (P25103 whole entry): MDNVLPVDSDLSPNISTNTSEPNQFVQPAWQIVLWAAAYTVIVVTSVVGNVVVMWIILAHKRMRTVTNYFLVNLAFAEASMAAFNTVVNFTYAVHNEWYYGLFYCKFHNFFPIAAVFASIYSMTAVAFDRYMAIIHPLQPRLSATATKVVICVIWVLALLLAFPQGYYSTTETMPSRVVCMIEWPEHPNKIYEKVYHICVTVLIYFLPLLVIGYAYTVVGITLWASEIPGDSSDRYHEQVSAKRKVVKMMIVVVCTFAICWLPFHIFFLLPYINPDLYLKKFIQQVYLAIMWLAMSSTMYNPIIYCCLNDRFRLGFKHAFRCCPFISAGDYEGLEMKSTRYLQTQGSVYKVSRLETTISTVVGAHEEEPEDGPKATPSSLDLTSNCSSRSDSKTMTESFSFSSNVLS

Turning to `O=C(NCc1cc(C(F)(F)F)cc(C(F)(F)F)c1)c1cnc2ccccc2c1-c1ccccc1`, the IC50 (commonly the concentration that gives 50% inhibition) on Substance-P receptor [1] is greater than 1000 nM.

At Substance-P receptor [1], `Cc1nc2ccccc2c(-c2ccccc2)c1C(=O)N(C)Cc1cc(C(F)(F)F)cc(C(F)(F)F)c1` had an IC50 of 3.1 nM. The same molecule returned a Binding at Substance-P receptor [2] of 73%.

`Ic1ccccc1CN[C@@H]1C2CCN(CC2)[C@@H]1C(c1ccccc1)c1ccccc1`: at Substance-P receptor [1], the IC50 was 1.6 nM. This molecule returned a Binding on Substance-P receptor [2] of 100%.

At Substance-P receptor [1], `O=C(NCc1cc(C(F)(F)F)cc(C(F)(F)F)c1)c1c(CBr)nc2ccccc2c1-c1ccccc1` showed an IC50 of 0.01 nM. On Substance-P receptor [2], this molecule had a Binding of 71%.

`O=C(NCc1cc(C(F)(F)F)cc(C(F)(F)F)c1)c1c(CN2C(=O)c3ccccc3C2=O)nc2ccccc2c1-c1ccccc1` had an IC50 at Substance-P receptor [1] greater than 1000 nM.

`O=C(NCc1cc(C(F)(F)F)cc(C(F)(F)F)c1)c1c(CO)nc2ccccc2c1-c1ccccc1`: the Concentration in the assay with Endothelial cell [3] worked out at 100 nM; with Endothelial cell [4] it was 0.1 nM; in the assay with Endothelial cell [5], 1000 nM. The same molecule registered an IC50 on Substance-P receptor [1] of 0.0001 nM. The Binding at Substance-P receptor [2] came out at 100%.

For the molecule `CN(Cc1cc(C(F)(F)F)cc(C(F)(F)F)c1)C(=O)c1c(CN)nc2ccccc2c1-c1ccccc1`, the IC50 at Substance-P receptor [1] is 9 nM. The molecule also displayed a Binding on Substance-P receptor [2] of 100%.

`CN(Cc1cc(C(F)(F)F)cc(C(F)(F)F)c1)C(=O)c1c(CBr)nc2ccccc2c1-c1ccccc1` showed an IC50 on Substance-P receptor [1] of 52 nM. For the same molecule, on Substance-P receptor [2], the Binding is 100%.

In the case of `CN1CCN(Cc2nc3ccccc3c(-c3ccccc3)c2C(=O)NCc2cc(C(F)(F)F)cc(C(F)(F)F)c2)CC1`, the IC50 at Substance-P receptor [1] was greater than 1000 nM.

For the molecule `CNCc1nc2ccccc2c(-c2ccccc2)c1C(=O)NCc1cc(C(F)(F)F)cc(C(F)(F)F)c1`, the IC50 on Substance-P receptor [1] was determined as 0.011 nM. This molecule also registered a Binding on Substance-P receptor [2] of 82%.

As to `NCc1nc2ccccc2c(-c2ccccc2)c1C(=O)NCc1cc(C(F)(F)F)cc(C(F)(F)F)c1`, on Substance-P receptor [1], the IC50 was found to be 0.0017 nM. The same molecule gave a Binding on Substance-P receptor [2] of 100%.

In the case of `CN(Cc1cc(C(F)(F)F)cc(C(F)(F)F)c1)C(=O)c1cnc2ccccc2c1-c1ccccc1`, the IC50 at Substance-P receptor [1] came out at 0.03 nM. On Substance-P receptor [2], this molecule showed a Binding of 83%.

The molecule `CC(C)(C)[Si](C)(C)OCc1nc2ccccc2c(-c2ccccc2)c1C(=O)NCc1cc(C(F)(F)F)cc(C(F)(F)F)c1` displayed an IC50 at Substance-P receptor [1] of 17 nM. On Substance-P receptor [2], this molecule showed a Binding of 100%.

Take `Cc1nc2ccccc2c(-c2ccccc2)c1C(=O)NCc1cc(C(F)(F)F)cc(C(F)(F)F)c1`: the IC50 at Substance-P receptor [6] stood at 3900 nM; on Substance-P receptor [1], 0.075 nM. On Substance-P receptor [2], this molecule returned a Binding of 78%.

As for `CN(Cc1cc(C(F)(F)F)cc(C(F)(F)F)c1)C(=O)c1c(CO)nc2ccccc2c1-c1ccccc1`, the Binding on Substance-P receptor [2] turned out to be 75%.

`O=C(NCc1cc(C(F)(F)F)cc(C(F)(F)F)c1)c1c(CCl)nc2ccccc2c1-c1ccccc1` returned an IC50 on Substance-P receptor [1] of 26 nM. The Binding on Substance-P receptor [2] worked out at 57%.

With `COCc1nc2ccccc2c(-c2ccccc2)c1C(=O)N(C)Cc1cc(C(F)(F)F)cc(C(F)(F)F)c1`, the IC50 at Substance-P receptor [1] was 11 nM. This molecule also returned a Binding on Substance-P receptor [2] of 100%.

For the molecule `CN(Cc1ccccc1)Cc1nc2ccccc2c(-c2ccccc2)c1C(=O)NCc1cc(C(F)(F)F)cc(C(F)(F)F)c1`, the IC50 at Substance-P receptor [1] turned out to be 180 nM. This molecule had a Binding at Substance-P receptor [2] of 71%.

With `CN(C)Cc1nc2ccccc2c(-c2ccccc2)c1C(=O)NCc1cc(C(F)(F)F)cc(C(F)(F)F)c1`, the figures for the IC50 on Substance-P receptor [6] and on Substance-P receptor [1] were 11 nM and 0.22 nM, respectively. At Substance-P receptor [2], this molecule showed a Binding of 40%.

Source of the values: ChEMBL document CHEMBL1149088, “A non-peptide NK1 receptor agonist showing subpicomolar affinity” (J Med Chem, 2004).
